The source of these data is PubChem BioAssay AID179 (DTP/NCI, 2004).

pEC50, pIC50: −log10 of the molar value. Activity calls are given as the source filed them.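 The calls were made as follows: active = compounds giving half or more protection of infected cells from virus-caused growth loss, again on retest; inactive = the rest.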 Where a SMILES comes first, the peptide text is derived from it.

The experiment concerns CEM cells HIV-1 protection, formazan growth assay. In words: NCI AIDS Antiviral Assay. The conditions noted are these: for pIC50: measured here: growth of uninfected CEM cells. In short, it runs like this: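 Protection of CEM cells against HIV-1 measured as cell growth via soluble formazan read-out, with five concentrations tested on both infected and uninfected cells; failure to protect may reflect toxicity.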

By pEC50 is commonly meant the EC50 on a negative log10 scale, so that one unit is a factor of ten. The pIC50 is the IC50 on a negative log10 scale, so that one unit is a factor of ten. A low value points to a large IC50. Turning to `CC1CC[C@]2(C(=O)O)CCC3(C)C(=C2[C@H]1C)C=CC1[C@@]2(C)CC[C@H](O)C(C)(C)C2CC[C@]13C` (stereo partly drawn), the pEC50 was less than 4.00 and the pIC50 was less than 4.00.
Take `COc1cc([C@H]2Oc3c(OC)cc(/C=C/C(N)=O)cc3[C@@H]2C(N)=O)ccc1O`: the pEC50 is less than 3.70 and the pIC50 is less than 3.70.
`Oc1ccc2ccccc2c1OCc1nnc(CCCCCCCCc2nnc(COc3c(O)ccc4ccccc34)o2)o1`: the pEC50 was less than 3.70 and the pIC50 was 4.32.
On the same counts, the results for `Cc1cc2cc3cc(C)c(N)cc3nc2cc1N` are less than 5.70 and 6.18.
In the case of `C=C1C[C@@H]2C[C@@H](C)CC(O)[C@]2(CCCN)C1O` (stereo partly drawn), the outcome was inactive.
On to `O=C(CCCN1CC=C(n2c(=O)[nH]c3ccccc32)CC1)c1ccc(F)cc1`, for which the pEC50 is less than 3.70 and the pIC50 was 4.05.
The matching figures for `COc1ccc(N2C(=O)C(=O)C3(CCCCC3)C2=O)c2ccccc12`: less than 3.70 and less than 3.70.
On the same counts, the results for `CCn1c2ccccc2c2c3ncc4cccn4c3ccc21` are less than 3.70 and 3.87.
In the case of `COc1ccc(C(=O)/C=C/c2ccc(OCC(=O)N3CCN(c4ccccc4)CC3)cc2)cc1`, the pEC50 is less than 4.53 and the pIC50 was less than 4.53.
Turning to `C[C@H]1C2=CC(=O)CC[C@@](C)(O2)[C@H]2CC[C@]3(C)C(=O)CC[C@H]3[C@H]12`, the pEC50 is less than 3.08 and the pIC50 is 3.38.
The matching figures for `CCc1c2cc(OC)c(OC)cc2cc2c3cc(OC)c(OC)cc3cc[n+]12` (tested in a mixture with another compound): less than 3.63 and 4.47.
The matching figures for `O=C(CC(=O)N1N=C(c2ccccc2)C(N=Nc2ccccc2Cl)C1=O)Nc1ccccc1Cl` (stereo not drawn): less than 4.28 and 4.53.
On the same counts, the results for `CCC(CC)n1cc(C(=O)NC(=O)NCCCCCOC(=O)CCCCCCCCCCC(=O)OCCCCCNC(=O)NC(=O)c2cn(C(CC)CC)c(=O)[nH]c2=O)c(=O)[nH]c1=O` are less than 4.68 and less than 4.68.
`COC(=O)c1c/c(=N\NC(=O)CC(=O)Nc2ccccc2Cl)c2ccccc2o1`: the pEC50 is 3.78 and the pIC50 was 3.52.
The matching figures for `COc1cc(O)cc2c1C(=O)C(C)O2` (stereo not drawn): less than 3.70 and less than 3.70.
The matching figures for `COC(=O)C12CC(C3CC31)C1CC12` (stereo not drawn): less than 3.60 and less than 3.60.
The matching figures for `O=[N+]([O-])c1ccc(Nc2ccc(Cl)cc2)c2nonc12`: less than 4.36 and 4.82.
In the case of `COc1cc2c3c(c1OC)-c1ccccc1C(C(O)c1ccccc1)C3N(C)CC2` (stereo not drawn), the result was inactive.
The same measure, in the same setting: with `Nc1cc(N2CCCC2)nc(=O)n1Cc1ccccc1` the entry was “inactive”.
Consider `[N-]=[N+]=CC(=O)CCC(=O)N(c1ccccc1)c1ccccc1`, for which the pEC50 is 3.87 and the pIC50 was 3.71.
On the same counts, the results for `COC(=O)C(Cc1nc2ccc(Cl)cc2[nH]c1=O)C(=O)C(=O)Nc1cc(C)ccc1C` (stereo not drawn) are less than 3.67 and less than 3.67.
Take `COc1cc2c(c(OC)c1OC)-c1ccc(NCCCNc3ccc4c(cc3=O)C(NC(C)=O)CCc3cc(OC)c(OC)c(OC)c3-4)c(=O)cc1C(NC(C)=O)CC2` (stereo not drawn): the result was inactive.
As to `O=C(O)C12C3C4C1C1C2C3C41C(=O)O` (stereo not drawn), the pEC50 is less than 3.70 and the pIC50 is less than 3.70.
For `COc1cc2c(cc1OC)[C@H]1C(COC(=O)Nc3ccccc3)CN1CC2` (stereo partly drawn), the pEC50 is less than 3.17 and the pIC50 was 4.03.
On the same counts, the results for `CC(=O)C1C(=O)C(=O)N(c2ccc([N+](=O)[O-])cc2[N+](=O)[O-])C1=O` (stereo not drawn) are less than 3.70 and less than 3.70.
For `COC1/C=C/OC2(C)Oc3c(C)c(O)c4c(O)c(c(/C=N/Nc5nc6c(N)ncnc6n5C5OC(CO)C(O)C5O)c(O)c4c3C2=O)NC(=O)C(C)=C/C=C/C(C)C(O)C(C)C(O)C(C)C(OC(C)=O)C1C` (stereo not drawn), the pEC50 was less than 3.70 and the pIC50 is 3.80.
The matching figures for `NC(=O)CSc1c2cc(O)ccc2nc2ccc(O)cc12`: less than 3.70 and 4.44.
The matching figures for `Cc1ccc(Cc2nc(=S)[nH][nH]2)cc1`: less than 3.70 and 3.92.
Turning to `Cc1ccc(Cl)cc1N=NC(=O)NNc1cc(Cl)ccc1C`, the pEC50 was less than 3.70 and the pIC50 is 4.60.
Regarding `Cc1cc(NCCCCCCCNc2cc(C)nc3cc([N+](=O)[O-])ccc23)c2ccc([N+](=O)[O-])cc2n1`, the outcome was inactive.
Take `CC(C)CC(NC(=O)C(CO)NC(=O)C(CCCCN)NC(=O)C(CCCCN)NC(=O)C(NC(=O)CNC(=O)C(NC(=O)C(CO)NC(=O)C(NC(=O)C(NC(=O)C(CO)NC(=O)C(CC(N)=O)NC(=O)C(N)CCC(N)=O)C(C)C)C(C)C)C(C)O)C(C)C)C(=O)NC(Cc1ccccc1)C(=O)NC(CCC(N)=O)C(=O)O` (stereo not drawn) (H-QNSVVSTGVKKSLFQ-OH; configuration not given here): the result was inactive.
Still for that read-out and setting: next, `CC1CC[C@]2(C(=O)O)CCC3(C)C(=CC(=O)C4[C@@]5(C)CCC(=O)C(C)(C)C5CC[C@]43C)[C@@H]2[C@H]1C` (stereo partly drawn): “inactive”.
In the case of `CCOC(=O)N1CCN(c2ccc3ccc(N)nc3n2)CC1`, the pEC50 was less than 3.70 and the pIC50 was 3.83.
On the same counts, the results for `N=CN=CC(=S)O[C@@H]1C(=O)N2CCC[C@@]23CCCC[C@@H]13` are less than 4.60 and less than 4.60.
The matching figures for `Cc1ccc(S(=O)(=O)N/N=C2/C3CCC(C3)C2c2ccccc2)cc1` (stereo not drawn): less than 3.70 and less than 3.70.
Consider `C=CCn1c(N)c(N=O)c(=O)n(C)c1=O`, for which the pEC50 was less than 3.70 and the pIC50 is less than 3.70.
Regarding `Cc1ccc(S(=NS(=O)(=O)c2ccc(C)cc2)c2ccc(C)cc2)cc1`, the pEC50 is less than 4.31 and the pIC50 was less than 4.31.
For the molecule `O=C(Nc1ccccc1)Oc1ccccc1C1CCCCC1`, the outcome was inactive.
On to `COc1cc(OC)cc(C2(C(=O)O)CCN(C)CC2)c1`, for which the pEC50 is less than 3.05 and the pIC50 is 4.01.
On the same counts, the results for `C[C@H](C/C=C/C(C)(C)O)[C@H]1CC[C@@]2(C)[C@@H]3CC[C@H]4C(C)(C)[C@@H](O)CC[C@@]45C[C@@]35CC[C@]12C` are less than 3.70 and 5.33.
On the same counts, the results for `CC(C)=CCN1c2ccccc2[C@@]2(CC=C(C)C)CCN(C)[C@@H]12` are less than 3.70 and 4.48.
`CCOC(=O)c1ccc(CS(=O)(=O)c2ccc(OC)cc2)c([N+](=O)[O-])c1`: the pEC50 is less than 4.02 and the pIC50 was less than 4.02.
As to `CN(C)c1ccc(/C=C2\C=Cc3ccccc32)cc1Br`, the pEC50 is less than 5.08 and the pIC50 was less than 5.08.
Regarding `Cc1ccc2c(c1)C1(SC(C)C(=O)N1c1ccc(I)cc1)C(=O)N2` (stereo not drawn), the pEC50 was less than 3.70 and the pIC50 is 4.70.
The matching figures for `CC(=O)OC12c3ccccc3-c3ccccc3C1C1C(=O)N(C)C(=O)C12Cl` (stereo not drawn): less than 4.17 and less than 4.17.
Regarding `COc1ccc(OC)c2c3c(ccc12)C(c1ccccc1)OC3=O` (stereo not drawn), the outcome was inactive.
Regarding `COC(=O)C(=O)OC1(C(C)=O)CC2(c3ccccc3)OC1(c1ccccc1)c1ccccc12` (stereo not drawn), the outcome was inactive.
`CN=C1CN=C(OP(=O)(N2CCOCC2)N2CCOCC2)c2cc(Cl)ccc2N1`: the pEC50 is less than 5.21 and the pIC50 is less than 5.21.
`c1ccc2sc(SSc3nc4ccccc4s3)nc2c1`: the pEC50 was less than 3.70 and the pIC50 is less than 3.70.
On to `C/C=C1\CC(C(=O)OCC)CCCCCCC1=O` (stereo not drawn), for which the pEC50 was less than 3.70 and the pIC50 is 4.76.
The matching figures for `CC(=O)NC1C(OCc2ccccc2)OC(COC(=O)CCCCCCCCCCNC(=O)CCNc2ccc([N+](=O)[O-])c3[nH]c4ccc(O)cc4c(=O)c23)C(O)C1OC(C)C(=O)N[C@H](C(=O)N[C@H](CCC(=O)O)C(N)=O)C(C)C` (stereo partly drawn): less than 3.65 and 4.06.
The matching figures for `O=CCCn1[nH]c(=O)ccc1=O`: less than 2.83 and 2.85.
The matching figures for `N#Cc1nc(CCCN2C(=O)c3ccccc3C2=O)oc1N`: less than 3.70 and less than 3.70.
For the molecule `O=C1NCN(c2ccccc2)C12CCN(CC1COc3ccccc3O1)CC2` (stereo not drawn), the pEC50 is less than 3.70 and the pIC50 is less than 3.70.
Turning to `CCOC(=O)C(=O)Cc1cnc2ccccc2n1`, the pEC50 was less than 4.27 and the pIC50 was less than 4.27.
In the case of `Cc1ccc(S(=O)(=O)N/N=C(\C(=O)Nc2cccc([N+](=O)[O-])c2)c2nc3ccc([N+](=O)[O-])cc3[nH]c2=O)cc1`, the pEC50 is less than 3.91 and the pIC50 was 3.94.
The matching figures for `NC1CCC[C@@H](O)[C@H]1O` (stereo partly drawn): less than 3.70 and less than 3.70.
As for `c1ccc2nc3c(cc2c1)[nH]c1ccccc13`, the pEC50 was less than 3.47 and the pIC50 was 3.69.
As to `O=C1CCCC/C1=C(\Br)I`, the outcome was inactive.
For the molecule `O=C(c1ccccc1)c1ccc(C(=O)c2ccccc2)cc1`, the pEC50 was less than 5.30 and the pIC50 is less than 5.30.
As for `C=CCNC(=O)C(O)C(O)C(=O)NCC=C` (stereo not drawn), the pEC50 is less than 2.96 and the pIC50 is less than 2.96.
For `O=C1CSC(c2cccc([N+](=O)[O-])c2)N1c1ccc(-c2ccc(-n3c(-c4ccccc4)nc4ccccc4c3=O)cc2)cc1` (stereo not drawn), the pEC50 is less than 3.70 and the negative logarithm of the IC50 (pIC50) was 4.55.
The matching figures for `CN(C)CCCNC(=O)CCNC(=O)c1cc(NC(=O)c2cc(NC(=O)c3cc(NC(=O)c4nccn4C)cn3C)cn2C)cn1C`: less than 3.70 and 4.77.
Consider `CC(C)(C)/C(O)=C\c1nc2cc(C(F)(F)F)ccc2[nH]c1=O`, for which the pEC50 is less than 3.70 and the pIC50 was less than 3.70.
For the molecule `Cn1c2c(c3ccccc31)CCN(CCCN1CCN(c3ccccc3)CC1)C2=O`, the pEC50 was less than 4.26 and the pIC50 was 4.35.
As for `CCOC(=O)c1[nH]c2c(OCC)nc(OCC)nc2c1Br`, the pEC50 is less than 3.70 and the pIC50 was less than 3.70.
For `O=c1cc(-c2cccs2)ss1`, the pEC50 was 4.11 and the pIC50 was 3.96.
